{"source": "paper PMC12389442", "about": "“Towards a Consensus for the Analysis and Exchange of TFA as a Counterion in Synthetic Peptides and Its Influence on Membrane Permeation” (Pharmaceuticals, 2025)", "key": {"[1]": {"conditions": "not told", "protocol": "(§1) To investigate the influence of TFA^− and Cl^− as counterions on the membrane permeation of synthetic peptides, a liposomal fluorescence assay was performed as previously described [37, 38]. The assay relies on the change in fluorescence of HPTS correlating to the liposomal internal pH change altered by permeation of an acidic or basic compound across the phospholipid bilayer. […] We first evaluated the impact of counterions on the permeation kinetics of the CPPs. Fitted biexponential curves and calculated log Permapp values are shown if the obtained normalized RMSE was <0.10. […] Control experiments with TFA and HCl are also shown for reference. […] To complement the CPP study, we also investigated peptides AT 1–4 in the permeation assay.\n(§2) To investigate the influence of the counterions on the membrane permeability of peptides, a liposomal fluorescence assay was performed using a previously described method adapted to a plate reader [37, 38]."}, "[2]": {"test": "direct pH measurement of aqueous peptide salt solutions", "assay_type": "physicochemical", "conditions": "before exchange (TFA salt), about 2–2.4 mg/mL peptide salt", "description": "Direct pH measurements of aqueous solutions of peptides present as TFA, as well as Cl salts, were acidic in a pH range below 3 (exact values can be found in the Supporting Information). […] Strong counterions as Cl^− and TFA^− may shield the positive charges and hydrogen bond donors, facilitating permeation as a net neutral complex. The complex then dissociates in the unbuffered internal liposomal phase, into a weak base (peptide) and a strong acid (HCl or TFA), resulting in the release of protons leading to acidification and a decrease in fluorescence. This assumption would align with the concept of hydrophobic ion pairing, described to enhance the membrane permeability of charged molecules in drug delivery. Our findings confirm results of previous studies that counterions cannot be neglected and the salt form might affect the membrane permeation behavior of peptides, among other things. Given that counterions are often unreported in the literature, we herein emphasize the need for explicit consideration and clarification in peptide-based permeation assays and further functional studies.\nTable S8: pH measurements of AT1-4 peptide salt in aq. solution after exchange and lyophilization\nBefore Conc. peptide 2.38 2.38"}, "[3]": {"conditions": "at the concentrations used in the liposomal assay; cited from earlier work"}, "[4]": {"test": "liposomal fluorescence assay (HPTS) for passive membrane permeation", "protocol": "as §1, §2"}, "[5]": {"conditions": "cited from earlier work"}, "[6]": {"test": "peptide integrity during counterion exchange with aq. HCl, HPLC-UV", "assay_type": "physicochemical", "description": "As degradation issues in aqueous acidic solutions have been reported previously, the integrity of AT 1 during counterion exchange with the different concentrations of HCl was measured with HPLC-UV. […] Similar results could be found for all other peptides under investigation (Supplementary Materials Section S3). […] Nevertheless, the stability of the peptide as well as the counterion exchange efficacy may vary, depending on the peptide sequence. Therefore, the TFA^− content as well as the purity should always be confirmed after counterion exchange.\nFor the counterion exchange of TFA^− with Cl^−, the peptide salt was dissolved in a diluted aqueous HCl solution at a concentration of 1 mg/ml. […] To evaluate the influence of the peptide sequence, counterion exchange was also performed for AT 2, AT 3, and AT 4 with the optimally determined salt concentration of 10 mM. […] For all peptide samples, the content of counterions was measured by FT-IR, ^19F-NMR, and HPLC-ELSD before the exchange as well as after each lyophilization cycle (Ex 0, Ex 1, Ex 2, and Ex 3). […] HPLC-ELSD samples containing 0.75 mg/mL peptide salt in H2O were measured in triplicate with an injection volume of 5 and 20 µL. The purity of the samples was monitored during the counterion exchange with a 0.25 mg/mL peptide salt solution according to the purity method described below. […]"}, "[7]": {"test": "counterion (TFA−, Cl−, Na+) content of peptide salt by HPLC-ELSD during HCl exchange", "assay_type": "physicochemical", "description": "The TFA^− content in samples was quantified using three analytical methods, namely FT-IR, ^19F-NMR, and HPLC-ELSD, adapted from previous publications. The methods are described in detail in the Supplementary Materials Section S2. In short, FT-IR spectra were recorded in aqueous solution at a wavelength from 4000 cm^−1 to 600 cm^−1 (PerkinElmer Inc., Waltham, MA, USA). The absorbance maxima in the TFA^− absorbance range of 1210 to 1190 cm^−1 were determined using Python (3.10.10, https://docs.python.org/3/reference (accessed 22 April 2024)). The ^19F-NMR (Bruker Avance III 400 MHz NMR spectrometer, Bremen, Germany) measurements were performed in 10% deuterium oxide (D2O; >99.9 atom% D, Apollo Scientific, Bredbury, United Kingdom) in H2O (nanopure water, in-house water purification system ELGA Purelab, Villmergen, Switzerland) and the signal areas were determined via auto-integration. The HPLC-ELSD (VWR ELITE Lachrome Series, Dietikon, Switzerland) method was used under isocratic conditions with a mobile phase consisting of 40% 20 mM ammonium formate (≥99%, Sigma Aldrich, Buchs, Switzerland) in H2O (pH 4.0) and 60% acetonitrile (ACN; HPLC gradient grade, ≥99.9%, Sigma Aldrich, Buchs, Switzerland). Separation was achieved on an Acclaim Trinity P1 column (3 mm × 100 mm, Thermo Fisher Scientific, Sunnyvale, CA, USA) allowing for the simultaneous detection of TFA^−, Cl^−, and Na^+. Retention times were determined by single injection of analytes and quantification performed via peak area. All analytical methods were validated according to the ICH guidelines. For each analysis method, calibrators with concentrations in the corresponding quantitative range for TFA^− (additionally, Na^+ and Cl^− for HPLC-ELSD) were prepared and aliquoted for each validation day (4 days for FT-IR and ^19F-NMR, 8 days for HPLC-ELSD). Quality control (QC) samples (QC low, med, and high) were prepared independently. All aliquots were stored at 5 °C. Over a period of 7 (FT-IR and ^19F-NMR) or 21 days (HPLC-ELSD), daily regression curves were determined using the generalized least squares regression model. For the ^19F-NMR and FT-IR method, a linear model was used, and for the HPLC-ELSD method a polynomial model. Weightings of x, 1/x, and 1/x^2 were considered for the calibration curves. The accuracy was determined by comparing the established concentration of the QC sample concentration and the theoretical concentration. Bias and intra- and inter-day precision (RSDR and RSDT) were calculated according to Peters et al.. […] The limit of detection (LoD) and limit of quantification (LoQ) for the FT-IR and ^19F-NMR methods were calculated according following ICH guidelines based on the standard deviation of the response and slope. As a quadratic regression curve was determined for the HPLC-ELSD method, LoD and LoQ were determined using the signal-to-noise approach. To assess the stability of the calibration curve, the concentration of the QCs for each day was recalculated with the calibration curve established on the first day and the bias was determined by comparison with the theoretical value calculated.\nFor the counterion exchange of TFA^− with Cl^−, the peptide salt was dissolved in a diluted aqueous HCl solution at a concentration of 1 mg/ml. […] To evaluate the influence of the peptide sequence, counterion exchange was also performed for AT 2, AT 3, and AT 4 with the optimally determined salt concentration of 10 mM. […]"}}, "data": [{"molecule": "H-KETWWETWWTEWSQPKKKRKV-OH [Pep1]", "values": [{"measurement": "influence of type of counterion on passive permeation", "setting": "[1]", "value": "influence the amplitude of the permeation curve, although the overall log Permapp remained similar"}, {"measurement": "permeation kinetics / fluorescence change (qualitative)", "setting": "[1]", "value": "biexponential kinetics were observed"}]}, {"molecule": "H2N-RVYIHPF-COOH [AT 3]", "values": [{"measurement": "pH of peptide salt in aq. solution", "setting": "[2]", "value": 2.63}]}, {"molecule": "H2N-DRVYIHPF-COOH (H-DRVYIHPF-OH) [AT 2, angiotensin peptide synthesized by SPPS]", "values": [{"measurement": "pH of peptide salt in aq. solution", "setting": "[2]", "value": 2.63}]}, {"molecule": "H-LLIILRRRIRKQAHAHSK-OH [pVEC, H2N-LLIILRRRIRKQAHAHSK-COOH]", "values": [{"measurement": "POPC membrane disruption", "setting": "[3]", "value": "no POPC membrane disruption was observed"}, {"measurement": "passive membrane permeation (qualitative)", "setting": "[4]; Cl salt", "value": "did not detect permeation"}, {"measurement": "passive membrane permeation (qualitative)", "setting": "[4]; TFA salt", "value": "showed passive permeation"}, {"measurement": "Log Permapp", "setting": "[4]; TFA salt, 50 µM peptide solution added to liposomes, outer phase pH 6.0, 28.5 °C, ± standard error of the fit, n = 3", "value": "-6.913 ± 0.048", "unit": "cm/s"}, {"measurement": "hemolytic activity", "setting": "[5]", "value": "general hemolytic activity is described"}]}, {"molecule": "H2N-VYIHPF-COOH [AT 4]", "values": [{"measurement": "pH of peptide salt in aq. solution", "setting": "[2]", "value": 2.39}]}, {"molecule": "CC[C@H](C)[C@H](NC(=O)[C@H](CCCCN)NC(=O)[C@@H](NC(=O)[C@H](CCC(N)=O)NC(=O)[C@@H](N)CCCNC(=N)N)[C@@H](C)CC)C(=O)N[C@@H](Cc1c[nH]c2ccccc12)C(=O)N[C@@H](Cc1ccccc1)C(=O)N[C@@H](CCC(N)=O)C(=O)N[C@@H](CC(N)=O)C(=O)N[C@@H](CCCNC(=N)N)C(=O)N[C@@H](CCCNC(=N)N)C(=O)N[C@@H](CCSC)C(=O)N[C@@H](CCCCN)C(=O)N[C@@H](Cc1c[nH]c2ccccc12)C(=O)N[C@@H](CCCCN)C(=O)N[C@@H](CCCCN)C(N)=O", "note": "[AntP, H2N-RQIKIWFQNRRMKWKK-CONH2]", "values": [{"measurement": "influence of type of counterion on passive permeation", "setting": "[1]", "value": "unaffected by the type of counterion"}, {"measurement": "permeation kinetics / fluorescence change (qualitative)", "setting": "[1]", "value": "biexponential kinetics were observed"}]}, {"molecule": "H2N-DRVYIHPFHL-COOH (H-DRVYIHPFHL-OH) [AT 1, angiotensin model peptide synthesized by SPPS]", "values": [{"measurement": "degradation products during counterion exchange", "setting": "[6]; HCl up to 100 mM", "value": "No degradation products were observed"}, {"measurement": "purity during counterion exchange (stability in aq. HCl)", "setting": "[6]; all HCl concentrations (0–100 mM), over three exchange cycles", "value": "above 96%"}, {"measurement": "pH of peptide salt in aq. solution", "setting": "[2]", "value": 2.59}, {"measurement": "Cl− content relative to expected value based on stoichiometric exchange", "setting": "[7]; 10 mM HCl, single cycle", "value": 99.0, "unit": "%"}, {"measurement": "TFA− content of peptide salt", "setting": "[7]; after one exchange cycle with 10 and 100 mM HCl, below LoQ of all techniques", "value": "below 1 % (w/w)"}, {"measurement": "TFA− content of peptide salt", "setting": "[7]; after purification, before exchange, HPLC-ELSD", "value": "0.333 ± 0.008 mg TFA^− per mg peptide salt"}, {"measurement": "TFA− content of peptide salt", "setting": "[7]; control 0 mM HCl, after three exchange cycles", "value": "0.215 ± 0.023 mg TFA^− per mg peptide salt"}, {"measurement": "Cl− content of peptide salt", "setting": "[7]; exchanged with 10 mM HCl, after a single cycle", "value": 0.098, "unit": "mg per 1 mg peptide salt"}]}]}
